Test results: patent publication US20230151025A1, “SUBSTITUTED THIAZOLOPYRIDINES, SALTS THEREOF AND THEIR USE AS HERBICIDALLY ACTIVE SUBSTANCES” (Bayer Aktiengesellschaft, priority 2020, published 2023)

Experiments:
Type in all cases: in vivo
[1] = system: Polygonum convolvulus (POLCO); experiment: Herbicidal pre-emergence action (C), 320 g/ha; settings: ca. 3 weeks
Outline: (§1)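 Pre-emergence soil-surface spray: WP/EC formulation in water plus 0.5% additive, 600 l/ha, applied over freshly sown, soil-covered seeds in sandy loam. Greenhouse, optimum conditions, ~3 weeks. Visual % damage vs untreated (100% = dead).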

Stellaria media (STEME) = experiment: Herbicidal post-emergence action (B), 1280 g/ha
Outline: (§2)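 Foliar post-emergence treatment of one-leaf-stage weeds with WP or EC preparations in water plus 0.5% additive, sprayed at 600 L/ha. Visual efficacy was assessed after roughly 3 weeks relative to untreated controls, 100% being complete kill.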

[2] = system: Echinochloa crus-galli (ECHCG); experiment: Herbicidal post-emergence action (B), 1280 g/ha; settings: rated visually after about 3 weeks vs untreated controls
Outline: as §2

Poa annua (POAAN) = experiment: Herbicidal post-emergence action (B), 1280 g/ha; settings: rated visually after about 3 weeks vs untreated controls
Outline: as §2

Lolium rigidum (LOLRI) [3] = experiment: Herbicidal post-emergence action (B), 1280 g/ha; settings: one-leaf stage, rated after about 3 weeks vs untreated controls, 100% activity = the plants have died, 0% = like control plants
Outline: as §2

[4] = system: Abutilon theophrasti (ABUTH); experiment: Herbicidal post-emergence action (B), 1280 g/ha; settings: rated visually after about 3 weeks vs untreated controls
Outline: as §2

Veronica persica (VERPE) = experiment: Herbicidal post-emergence action (B), 1280 g/ha
Outline: as §2

Setaria viridis (SETVI) [5] = experiment: Herbicidal post-emergence action (B), 1280 g/ha; settings: rated visually after about 3 weeks vs untreated controls
Outline: as §2

[6] = system: Amaranthus retroflexus (AMARE); experiment: Herbicidal post-emergence action (B), 1280 g/ha; settings: rated visually after about 3 weeks vs untreated controls
Outline: as §2

[7] = system: Digitaria sanguinalis (DIGSA); experiment: Herbicidal post-emergence action (B), 1280 g/ha; settings: rated visually after about 3 weeks vs untreated controls
Outline: as §2

[8] = system: Kochia scoparia (KCHSC; Bassia scoparia); experiment: Herbicidal post-emergence action (B), 1280 g/ha
Outline: as §2

[9] = system: Alopecurus myosuroides (ALOMY); experiment: Herbicidal post-emergence action (B), 1280 g/ha; settings: rated visually after about 3 weeks vs untreated controls
Outline: as §2

Setaria viridis (SETVI) [10] = experiment: Herbicidal post-emergence action (D), 320 g/ha; settings: ca. 3 weeks
Outline: (§3)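 Scores are percent visual control, where 100% means plants died and 0% means no difference from untreated, taken roughly 3 weeks after a single foliar application at 600 l water/ha with 0.5% additive to single-leaf-stage greenhouse plants grown in sandy loam.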

Viola tricolor (VIOTR) = experiment: Herbicidal pre-emergence action (C), 320 g/ha; settings: ca. 3 weeks
Outline: as §1

[11] = system: Matricaria inodora (MATIN); experiment: Herbicidal post-emergence action (B), 1280 g/ha; settings: rated visually after about 3 weeks vs untreated controls
Outline: as §2

Avena fatua = experiment: Herbicidal pre-emergence action (C), 320 g/ha; settings: ca. 3 weeks
Outline: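 Weed and crop seeds sown in sandy loam; WP or EC formulations applied pre-emergence to the soil surface as aqueous suspension/emulsion with 0.5% additive at 600 l water/ha. Greenhouse-grown under optimum conditions; damage visually scored after ca. 3 weeks versus untreated controls (0% = as control, 100% = plants dead).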

[12] = system: Digitaria sanguinalis (DIGSA); experiment: Herbicidal post-emergence action (D), 320 g/ha; settings: ca. 3 weeks
From the text: Seeds of mono- and dicotyledonous weed plants and crop plants were sown, in plastic or organic planting pots, in sandy loam, covered with soil and grown in a greenhouse under controlled growth conditions. 2 to 3 weeks after sowing, the test plants were sprayed in the single-leaf stage. The compounds according to the invention, formulated in form of wettable powders (WP) or as emulsifiable concentrates (EC), were sprayed onto the green plant parts as aqueous suspension or emulsion, with the addition of 0.5% of an additive, at an application rate of 600 l of water/ha (converted). The test plants were placed in the greenhouse for ca. 3 weeks under optimum growth conditions, and then the effect of the preparations was assessed visually in comparison with untreated controls (herbicidal effect in percent (%): 100% effect=plants have died off, 0% effect=as control plants).
Tables D1 to D13 below show the effects of selected compounds of the general formula (I) according to table 1 on various harmful plants and an application rate corresponding to 320 g/ha obtained by the experimental procedure mentioned above.

Lolium rigidum (LOLRI) [13] = experiment: Herbicidal post-emergence action (D), 320 g/ha; settings: ca. 3 weeks
Outline: as §3

[14] = system: Matricaria inodora (MATIN); experiment: Herbicidal pre-emergence action (C), 320 g/ha; settings: ca. 3 weeks
Outline: as §1

[15] = system: Abutilon theophrasti (ABUTH); experiment: Herbicidal pre-emergence action (C), 320 g/ha; settings: ca. 3 weeks
Outline: as §1

[16] = system: Abutilon theophrasti (ABUTH); experiment: Herbicidal post-emergence action (D), 320 g/ha; settings: ca. 3 weeks
Outline: as §3

| Structure (SMILES) | herbicidal effect POLCO [1] [%] | herbicidal effect STEME (Stellaria media (STEME)) [%] | herbicidal activity ECHCG [2] [%] | herbicidal activity POAAN (Poa annua (POAAN)) [%] | LOLRI, activity rated visually (%) (Lolium rigidum (LOLRI) [3]) | herbicidal activity ABUTH [4] [%] | herbicidal effect VERPE (Veronica persica (VERPE)) [%] | herbicidal activity SETVI (Setaria viridis (SETVI) [5]) [%] | herbicidal activity AMARE [6] [%] | herbicidal activity DIGSA [7] [%] | herbicidal effect KCHSC [8] [%] | herbicidal activity ALOMY [9] [%] | herbicidal effect SETVI (Setaria viridis (SETVI) [10]) [%] | herbicidal effect VIOTR (Viola tricolor (VIOTR)) [%] | herbicidal activity MATIN [11] [%] | herbicidal effect AVEFA (Avena fatua) [%] | herbicidal effect MATIN [14] [%] | herbicidal effect ABUTH [15] [%] | also measured |
| --- | --- | --- | --- | --- | --- | --- | --- | --- | --- | --- | --- | --- | --- | --- | --- | --- | --- | --- | --- |
| CCc1cc2scnc2nc1-c1ccc(F)cc1F [Example I-030] | 80 | 90 | 100 | 100 | 90 | 100 | 90 | 90 | 100 | 100 | 100 | 90 |  |  |  |  |  |  |  |
| Fc1ccccc1-c1nc2ncsc2cc1C1CC1 [Example I-102] |  | 100 | 100 | 90 |  |  | 100 | 100 | 100 | 100 | 100 | 100 | 80 | 80 | 90 |  |  |  |  |
| Cc1cc2scnc2nc1-c1ccc(F)cc1F [Example I-122] |  | 100 | 90 | 100 |  | 90 | 100 | 90 | 100 | 100 | 100 | 100 |  |  |  | 100 |  |  |  |
| CCc1cc2scnc2nc1-c1ccccc1 [Example I-051] | 80 | 100 | 100 | 100 | 100 | 90 | 100 | 100 | 100 | 100 | 90 | 100 | 80 | 100 | 100 | 90 | 90 | 90 | herbicidal effect DIGSA [12]: 80%; herbicidal effect LOLRI (Lolium rigidum (LOLRI) [13]): 80% |
| Cc1cc2scnc2nc1-c1sccc1C [Example I-143] |  | 100 | 100 | 100 | 100 | 100 | 100 | 90 | 100 |  | 100 | 100 | 80 |  | 100 | 90 | 90 | 80 |  |
| CCc1cc2scnc2nc1-c1ccccc1F [Example I-023] | 80 | 100 | 100 | 100 | 100 | 100 | 90 | 100 | 100 | 100 | 90 | 100 | 80 | 80 |  |  | 90 | 80 | herbicidal effect DIGSA [12]: 80%; herbicidal effect ABUTH [16]: 80% |
| CCc1cc2scnc2nc1-c1ccccc1C [Example I-093] |  | 100 | 100 | 100 | 100 | 100 | 100 | 100 | 100 | 100 | 100 | 100 |  |  | 100 | 80 | 90 |  | herbicidal effect LOLRI (Lolium rigidum (LOLRI) [13]): 80% |
| COc1ccccc1-c1nc2ncsc2cc1C [Example I-124] |  | 100 | 90 | 100 |  | 100 | 100 | 90 | 90 | 100 | 100 | 100 |  | 90 |  |  | 80 |  |  |
| Cc1cc2scnc2nc1-c1cccc(F)c1 [Example I-003, 5-(3-fluorophenyl)-6-methyl-thiazolo[4,5-b]pyridine] | 80 | 100 | 100 | 100 |  |  | 90 | 90 | 100 | 90 | 90 | 100 | 80 | 80 |  |  |  |  |  |
| Cc1cc2scnc2nc1-c1sccc1Cl [Example I-137] |  | 100 | 100 | 100 | 90 | 90 | 100 | 100 | 100 | 100 | 90 | 100 |  | 90 | 90 | 80 | 90 |  | herbicidal effect DIGSA [12]: 90% |
| Fc1ccccc1-c1nc2ncsc2cc1I [Example I-188] | 80 | 90 | 90 | 90 | 90 |  |  | 90 | 100 |  | 90 |  | 100 |  | 90 | 100 |  | 80 |  |
| CCc1cc2scnc2nc1-c1cccc(F)c1 [Example I-029] |  | 100 | 100 | 100 |  | 100 | 90 | 100 | 100 | 100 | 100 | 100 |  |  |  |  |  |  |  |
